Read-outs that look alike come from different tables or passages of the source.
How the values were obtained:
Format in all cases: cell-based
[1] = system: HRV16; test: HRV16 HELA EC50 (cytopathic effect in H1-HeLa cells)
Outline: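 Read-out is luminescent cell viability (CellTiter-Glo) after 96 h of infection at 33 °C, scaled between uninfected and infected-untreated wells. Before infection with titrated virus, compounds went onto H1-HeLa cells as triplicate 3-fold dilution series.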

[2] = system: RSV strain A2; test: RSV HEp-2 EC50 (infectious cytopathic cell protection assay); settings: HEp-2 cells, RSV A2, 4 days, read-out: RSV HEp-2 EC50
Outline: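 Percent inhibition of RSV-induced cytopathic effect came from remaining cell viability (CellTiter-Glo luminescence) after 4 days at 37° C. Compounds in 3-fold serial dilutions were exposed to an infectious mix of titered A2 virus and HEp-2 cells at 50,000/ml, with 0% and 100% inhibition control standards.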

[3] = system: RSV A2; test: RSV NHBE EC50 (RSV A2 antiviral assay in normal human bronchial epithelial cells); settings: NHBE cells, RSV A2, 4 days, read-out: RSV NHBE EC50
[4] = system: DENV2 replicon; test: DENV-2 Huh-7 Rep EC50 (replicon luminescence); settings: Huh-7 replicon cells, 48 hours, read-out: DENV-2 Huh-7 Rep EC50
Outline: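 EC50 derived from luminescence dose-response, normalised to DMSO-only 0% inhibition wells, after 1.5 h with EnduRen substrate. Compounds were first exposed for 48 h at 37° C to DENV2 replicon Huh-7 cells (5,000/well).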

[5] = 96 h, H1-HeLa cells, 33° C., read-out: HRV16 HELA EC50
[6] = human respiratory syncytial virus, HEp-2, 96 h
[7] = human respiratory syncytial virus, NHBE, 96 h
[8] = Dengue virus, DENV2, Huh-7, 48 h

Row | SMILES | EC50 [1, 5] [nM] | EC50 [2, 6] [nM] | EC50 [3, 7] [nM] | EC50 [4, 8] [nM] | EC50 ([1]; H1-HeLa cells, 96 h, 33° C.; read-out: HRV16 HELA EC50) [nM] | EC50 [2] [nM] | EC50 [3] [nM] | EC50 [4] [nM]
1 | C[C@H](N[P@](=O)(OC[C@@]1(C#N)O[C@@H](c2ccc3c(N)ncnn23)[C@H](O)[C@@H]1O)Oc1ccccc1)C(=O)OC1CCCCC1 (single isomer, unassigned) [Example 6] | 227 | 88 | 124 | 2940 |  |  |  | 
2 | C[C@H](N[P@](=O)(OC[C@@]1(C#N)O[C@@H](c2ccc3c(N)ncnn23)[C@H](O)[C@@H]1O)Oc1ccccc1)C(=O)OCC(C)(C)C [Example 94] |  |  |  |  | 209 | 100 | 118 | 2340
3 | C[C@H](N[P@](=O)(OC[C@@]1(C#N)O[C@@H](c2ccc3c(N)ncnn23)[C@H](O)[C@@H]1O)Oc1ccccc1)C(=O)O[C@H]1CC[C@H](C(F)(F)F)CC1 (single isomer, unassigned) [Example 18] | 212 | 114 | 91 | 12300 |  |  |  | 
4 | CCCCCCCCCCCC(=O)OCCNP(=O)(OC[C@@]1(C#N)O[C@@H](c2ccc3c(N)ncnn23)[C@H](O)[C@@H]1O)Oc1ccccc1 (mixture of isomers) [Example 181, 2-(((((2R,3S,4R,5S)-5-(4-aminopyrrolo[2,1-f][1,2,4]triazin-7-yl)-2-cyano-3,4-dihydroxytetrahydrofuran-2-yl)methoxy)(phenoxy)phosphoryl)amino)ethyl dodecanoate] | 35 | 8 | 43 | 5250 |  |  |  | 
5 | CCCCCCCCCCCCOC(=O)[C@H](C)NP(=O)(OC[C@@]1(C#N)O[C@@H](c2ccc3c(N)ncnn23)[C@H](O)[C@@H]1O)Oc1ccccc1 (stereo partly drawn) [Example 191, dodecyl ((((2R,3S,4R,5S)-5-(4-aminopyrrolo[2,1-f][1,2,4]triazin-7-yl)-2-cyano-3,4-dihydroxytetrahydrofuran-2-yl)methoxy)(phenoxy)phosphoryl)-L-alaninate] | 3400 | 2380 | 35 | 61300 |  |  |  | 
6 | CC[C@H](NP(=O)(OC[C@@]1(C#N)O[C@@H](c2ccc3c(N)ncnn23)[C@H](O)[C@@H]1O)Oc1ccccc1)C(=O)OC1CCCCC1 (mixture of isomers) [Example 103, (2S)-cyclohexyl 2-(((((2R,3S,4R,5S)-5-(4-aminopyrrolo[2,1-f][1,2,4]triazin-7-yl)-2-cyano-3,4-dihydroxytetrahydrofuran-2-yl)methoxy)(phenoxy)phosphoryl)amino)butanoate] | 2440 | 938 | 548 | > 50000 |  |  |  | 
7 | CC(C)OC(=O)[C@H](C)NP(=O)(OC[C@@]1(C#N)O[C@@H](c2ccc3c(N)ncnn23)[C@H](O)[C@@H]1O)Oc1ccccc1 (mixture of isomers) [Example 77, Isopropyl ((((2R,3S,4R,5S)-5-(4-aminopyrrolo[2,1-f][1,2,4]triazin-7-yl)-2-cyano-3,4-dihydroxytetrahydrofuran-2-yl)methoxy)(phenoxy)phosphoryl)-L-alaninate] | 1420 | 464 | 1150 | 49800 |  |  |  | 
8 | CCC(CC)COC(=O)[C@H](C)N[P@](=O)(OC[C@@]1(C#N)O[C@@H](c2ccc3c(N)ncnn23)[C@H](O)[C@@H]1O)Oc1ccccc1 (single isomer, unassigned) [Example 25] | 135 | 26 | 127 | 2860 |  |  |  | 

— patent US20230295201A1 (Gilead Sciences, Inc., priority 2020, published 2023)
